Source: publication PMC5995839, “Exploring the role of unnatural amino acids in antimicrobial peptides” (Scientific Reports, 2018)
Converted amounts (≈) assume the structure as drawn. Square brackets hold non-standard residues; d marks the D form. Peptide text beside a SMILES is read from it. * marks the point of attachment. 2Nal = N[C@@H](Cc1ccc2ccccc2c1)C(=O)O; Ahx = NCCCCCC(=O)O; StBu = CC(C)(C)S*; tBu = CC(C)(C)*

Assays:
[1] = tested on: Escherichia coli ATCC 25922; assay type: cell-based
Experimental: The antimicrobial activity of the three designed peptides was tested against Escherichia coli (ATCC® 25922™), Pseudomonas aeruginosa (ATCC® 27853™), Pseudomonas aeruginosa PAO1 wild type strain, Bacillus subtilis subsp. spizizenii (ATCC® 6633™), Staphylococcus aureus (ATCC® 6538 P™) and Staphylococcus aureus MRSA WKZ-2 (kindly provided by collection of Prof. Edwin Veldhuizen, University of Utrecht, Holland). MIC assays were performed by broth microdilution method as described elsewhere[34] using Nutrient Broth (Becton Dickinson Difco, Franklin Lakes, NJ) as bacterial growth medium. […] Experiments were performed three times for each peptide.
Following the incubation time, MIC assays were carried out as previously described. […] Experiments were performed five times for each peptide.

[2] = tested on: Staphylococcus aureus (ATCC 6538P); assay type: cell-based
[3] = tested on: Escherichia coli (ATCC 25922); assay type: cell-based
Experimental: (§2) MIC assays were performed by broth microdilution method as described elsewhere[34] using Nutrient Broth (Becton Dickinson Difco, Franklin Lakes, NJ) as bacterial growth medium. […] Experiments were performed three times for each peptide.

[4] = tested on: Bacillus subtilis subsp. spizizenii (ATCC 6633); assay type: cell-based
Experimental: as §2

[5] = tested on: Pseudomonas aeruginosa (ATCC 27853); assay type: cell-based
Experimental: as §2

[6] = tested on: Pseudomonas aeruginosa PAO1 wild type strain; assay type: cell-based
Experimental: as §2

[7] = tested on: human keratinocytes cells HaCaT; assay type: cell-based
Experimental: (§1) Cytotoxic effects of the three peptides on human epithelial colorectal adenocarcinoma cells (CaCo-2) and on aneuploid immortal keratinocyte cells line from adult human skin (HaCaT) were assessed by performing the (3-(4,5-dimethylthiazol-2-yl)−2,5 diphenyltetrazolium bromide (MTT) reduction inhibition assay. Both human cell lines were obtained from the American Type Culture Collection (ATCC, Manassas, VA, USA) and grown at 37 °C in a humidified incubator containing 5% CO2 in Dulbecco’s modified Eagle’s medium (DMEM) supplemented with 10% fetal bovine serum, 4 mM glutamine, 400 units/mL penicillin, and 0.1 mg mL^−1 streptomycin. Cells were plated on 96-well plates at a density of 5 × 10^3 per well in 100 μL of medium and incubated at 37 °C with 5% CO2. Medium was then replaced with 100 μl of fresh media containing peptide solution to a final concentration ranging from 0.1–10 μM/well. After a time of incubation ranging from 18 to 48 hours at 37 °C, the peptide-containing medium was removed, and 10 μL of a 5 mg mL^−1 MTT stock solution in DMEM without red phenol, corresponding to a final concentration of […] in DMEM (final volume of 100 μL), was added to the cells. […] Cell survival was reported as the relative absorbance, with respect to control, of blue formazan measured at 570 nm with a Synergy Multi Plate Reader. […]

[8] = tested on: human intestinal CaCo-2 cells; assay type: cell-based
Experimental: as §1

[9] = tested on: Staphylococcus aureus MRSA WKZ-2; assay type: cell-based
Experimental: as §2

[10] = Relative hydrophobicity by retention in reverse phase HPLC; assay type: physicochemical; details: chromatographic, Fig. S4 and Table S1 (numbers not available here)
Experimental: Crude peptides were purified by preparative HPLC on a Shimadzu LC-8A system. A Vydac C18 column (22 mm × 250 mm; 10 μm) was used, eluted with a H2O 0.1% TFA, (eluent A) and CH3CN 0.1% TFA (eluent B) linear gradient at 22 mL min^−1 flow rate. Fractions were separated according to their absorbance at 210 nm by an online UV detector (Shimadzu). Peptide fractions were then checked for their purity by analytical LCMS. Peptide identities were confirmed by LCMS analysis on a Shimadzu 20ADxr coupled with a Shimadzu ESI-IT-TOF mass detector (probe voltage 4.5 kV; probe temperature 25 °C; desolvation temperature 250 °C; detector voltage 1.5 kV). All analyses were performed with a Vydac C18 column (2.1 mm × 100 mm; 5 μm), eluted with a H2O 0.05% TFA, (eluent A) and CH3CN 0.05% TFA (eluent B) linear gradient, from 5% to 95% (solvent B), over 30 minutes, at 0.2 ml min^−1 flow rate. Pure fractions were pooled and lyophilized as TFA salts (purity >95%). Peptide samples for biological assays were further subjected to counter ion exchange on a DEAE-Sephadex weak […] resin. Briefly, peptide solutions in water were loaded on a 0.5 mL syringe column, and then eluted by decreasing the pH with an acetate buffer at pH 4.3 to obtain the desired peptide acetate salt. Further, the relative hydrophobicities of P9 peptides were evaluated through their retention in reverse phase HPLC.

Row | Compound | Fold change (16 h) [1] | Fold change (1 h) [1] | MIC, Preincubation for 1 h in 10% serum ([1]; E. coli ATCC 25922, peptide incubated 1 h in 10% fetal bovine serum at 37 °C before MIC assay, five replicates) | MIC, S. aureus ATCC6538P [2] | MIC, E. coli ATCC25922 [3] | MIC, B. spizizenii ATCC6633 [4] | MIC, P. aeruginosa ATCC27853 [5] | MIC, PAO1 Wt [6] | MIC, S. aureus MRSA [9] | relative hydrophobicity (retention in reverse phase HPLC) [10] | toxic effects on HaCaT cells at low doses [7] | toxic effect on CaCo2 cells at low doses, compared with HaCaT [8]
1 | CC(=O)N[C@@H](CC(C)C)C(=O)N[C@@H](CCCNC(=N)N)C(=O)N[C@H](C(=O)N[C@@H](CCCNC(=N)N)C(=O)N[C@@H](CC(C)C)C(=O)N[C@@H](C)C(=O)N[C@@H](CO)C(=O)N[C@@H](Cc1c[nH]cn1)C(=O)N[C@@H](CC(C)C)C(=O)N[C@@H](CCCNC(=N)N)C(=O)N[C@@H](CCCCN)C(=O)N[C@@H](CC(C)C)C(=O)N[C@@H](CCCNC(=N)N)C(=O)N[C@@H](CCCCN)C(=O)N[C@@H](CCCNC(=N)N)C(=O)N[C@@H](CC(C)C)C(=O)N[C@@H](CC(C)C)C(=O)N[C@@H](CCCNC(=N)N)C(N)=O)C(C)C [Ac-ApoE(133–150)-NH2, reference compound] | >16 |  |  |  |  |  |  |  |  |  |  | 
2 | CC(C)C[C@H](NC(=O)[C@H](CCCNC(=N)N)NC(=O)[C@@H](NC(=O)[C@H](CCCNC(=N)N)NC(=O)[C@@H](N)CC(C)C)C(C)C)C(=O)N[C@@H](C)C(=O)N[C@@H](CO)C(=O)N[C@@H](Cc1c[nH]cn1)C(=O)N[C@@H](CC(C)C)C(=O)N[C@@H](CCCNC(=N)N)C(=O)N[C@@H](CCCCN)C(=O)N[C@@H](CC(C)C)C(=O)N[C@@H](CCCNC(=N)N)C(=O)N[C@@H](CCCCN)C(=O)N[C@@H](CCCNC(=N)N)C(=O)N[C@@H](CC(C)C)C(=O)N[C@@H](CC(C)C)C(=O)N[C@@H](CCCNC(=N)N)C(=O)O [ApoE(133–150), reference compound] | >16 | >16 | completely lost antimicrobial activity |  |  |  |  |  |  |  |  | 

Now from value to molecule, other results behind:

Row | Fold change (16 h) [1] | Fold change (1 h) [1] | MIC, Preincubation for 1 h in 10% serum ([1]; E. coli ATCC 25922, peptide incubated 1 h in 10% fetal bovine serum at 37 °C before MIC assay, five replicates) | MIC, S. aureus ATCC6538P [2] | MIC, E. coli ATCC25922 [3] | MIC, B. spizizenii ATCC6633 [4] | MIC, P. aeruginosa ATCC27853 [5] | MIC, PAO1 Wt [6] | MIC, S. aureus MRSA [9] | relative hydrophobicity (retention in reverse phase HPLC) [10] | Compound | toxic effects on HaCaT cells at low doses [7] | toxic effect on CaCo2 cells at low doses, compared with HaCaT [8]
3 | >8 | 1 |  | 40 µM (≈ 53.6 µg/mL) | 10 µM (≈ 13.4 µg/mL) | 40 µM (≈ 53.6 µg/mL) | 1.25 µM (≈ 1.68 µg/mL) | 10 µM (≈ 13.4 µg/mL) | 40 µM (≈ 53.6 µg/mL) |  | CC(C)(C)SC[C@H](NC(=O)CCCCCN)C(=O)N[C@@H](CCCCN)C(=O)N[C@@H](Cc1ccc2ccccc2c1)C(=O)N[C@@H](Cc1ccc2ccccc2c1)C(=O)N[C@@H](CCCCN)C(=O)N[C@@H](CCCCN)C(=O)N[C@@H](CSC(C)(C)C)C(=O)NCCCCCC(N)=O [P9Nal(SR)] (H-[Ahx]C(tBu)K[2Nal][2Nal]KKC(tBu)[Ahx]-NH2) | no evident toxic effects | slightly higher
4 |  | 1 |  | 10 µM (≈ 14 µg/mL) | 10 µM (≈ 14 µg/mL) | 10 µM (≈ 14 µg/mL) | 2.5 µM (≈ 3.51 µg/mL) | 10 µM (≈ 14 µg/mL) | 20 µM (≈ 28.1 µg/mL) | most hydrophobic | CC(C)(C)SSC[C@H](NC(=O)CCCCCN)C(=O)N[C@@H](CCCCN)C(=O)N[C@@H](Cc1ccc2ccccc2c1)C(=O)N[C@@H](Cc1ccc2ccccc2c1)C(=O)N[C@@H](CCCCN)C(=O)N[C@@H](CCCCN)C(=O)N[C@@H](CSSC(C)(C)C)C(=O)NCCCCCC(N)=O [P9Nal(SS)] (H-[Ahx]C(StBu)K[2Nal][2Nal]KKC(StBu)[Ahx]-NH2) |  | 
5 |  | 1 |  | 20 µM (≈ 27.7 µg/mL) | 10 µM (≈ 13.8 µg/mL) | 40 µM (≈ 55.3 µg/mL) | 2.5 µM (≈ 3.46 µg/mL) | 10 µM (≈ 13.8 µg/mL) | 40 µM (≈ 55.3 µg/mL) |  | CC(C)(C)SSC[C@H](NC(=O)CCCCCN)C(=O)N[C@@H](CCCCN)C(=O)N[C@@H](Cc1c[nH]c2ccccc12)C(=O)N[C@@H](Cc1c[nH]c2ccccc12)C(=O)N[C@@H](CCCCN)C(=O)N[C@@H](CCCCN)C(=O)N[C@@H](CSSC(C)(C)C)C(=O)NCCCCCC(N)=O [P9Trp(SS)] (H-[Ahx]C(StBu)KWWKKC(StBu)[Ahx]-NH2) |  | 
